Read-outs that look alike come from different tables or passages of the source.

In one series the target is SARS-CoV-2 M^pro (Severe acute respiratory syndrome coronavirus 2, UniProt P0DTD1). Description: Inhibition profiling in cell culture (dark-to-bright GFP reporter substrate, flow cytometry). It is filed as cell-based. The note with it: for Inhibition of SARS-CoV-2 M^pro in cell culture: 200 micromolar concentration of the inhibitors, HEK-293 T cells. For orientation: A flow cytometer gives signals particle by particle.

For series [1] the following is noted: patient's serum under antiretroviral treatment; cited from earlier work.
In the next series the test system is HEK-293 T cells. Put plainly: Cell viability assay (MTT). The note with it: for Cytotoxicity: HEK-293 T cells; for Tolerability by HEK-293 T cells: high concentrations.
The subject of series [2] is SARS-CoV-2. More on the design: method as in PMID 32147628. The note with it: in vitro; cited from earlier work.
A further series concerns MERS-CoV. The note with it: Calu-3 cells; cited from earlier work.
For series [3], the system named is SARS-CoV-2. The note with it: Vero E6 cells; cited from earlier work.
The test system of series [4] is SARS-associated coronavirus. The note with it: combination of lopinavir/ritonavir and ribavirin; cited from earlier work.
Where [5] appears, read: HEK-293 T cells co-transfected with CoV-2 M^pro and PR-Sub plasmids, 24 h, GFP fluorescence, triplicate experiments, read-out: IC50.

Turning to `COC(=O)N[C@H](C(=O)N[C@@H](Cc1ccccc1)[C@@H](O)CN(Cc1ccc(-c2ccccn2)cc1)NC(=O)[C@@H](NC(=O)OC)C(C)(C)C)C(C)(C)C` [Atazanavir, atazanavir], the concentration for half-maximal inhibition (IC50) (commonly the concentration that gives 50% inhibition) at SARS-CoV-2 M^pro (setting [5]) came to 60.7 µM. The “Minimum concentration (Cmin)” value in series [1] is below 1000 nM. In addition, in the series on HEK-293 T cells (concentration of 200 µM), the Cytotoxicity result is given as “cytotoxicity was not observed”. In addition, in the series with HEK-293 T cells, the “Tolerability by HEK-293 T cells” value is on record as “well tolerated”.
For the compound `CC(C)CN(C[C@@H](O)[C@H](Cc1ccccc1)NC(=O)O[C@H]1CO[C@H]2OCC[C@H]21)S(=O)(=O)c1ccc(N)cc1` [Darunavir, darunavir], the IC50 on SARS-CoV-2 M^pro (read-out: IC50) is 36.1 µM. Besides, the “Concentration inhibiting SARS-CoV-2 replication” value in the series with SARS-CoV-2 [2] is given as 300 µM. Besides, the “Tolerability by HEK-293 T cells” value with HEK-293 T cells was “well tolerated”.
In the case of `Cc1cccc(C)c1OCC(=O)N[C@@H](Cc1ccccc1)[C@@H](O)C[C@H](Cc1ccccc1)NC(=O)[C@H](C(C)C)N1CCCNC1=O` [Lopinavir, lopinavir], the IC50 result on SARS-CoV-2 M^pro was “Indeterminable”; in the series on MERS-CoV, 11.6 µM. In addition, the Cytotoxicity in the series with HEK-293 T cells (concentrations above 50 µM) stood at 90%.
Turning to `Cc1c(O)cccc1C(=O)N[C@@H](CSc1ccccc1)[C@H](O)CN1C[C@H]2CCCC[C@H]2C[C@H]1C(=O)NC(C)(C)C` [Nelfinavir, nelfinavir], on SARS-CoV-2 M^pro, the IC50 is above 200 µM and the “Inhibition of SARS-CoV-2 M^pro in cell culture” value is reported as “failed to inhibit”.
For `CC(C)c1nc(CN(C)C(=O)N[C@H](C(=O)N[C@@H](Cc2ccccc2)C[C@H](O)[C@H](Cc2ccccc2)NC(=O)OCc2cncs2)C(C)C)cs1` [Ritonavir, ritonavir], the “Inhibition of viral replication” value in the series with SARS-CoV-2 [3] is “no inhibition of viral replication”. Further, the IC50 with MERS-CoV is 24.9 µM. Further, in the series with HEK-293 T cells (concentrations above 50 µM), the Cytotoxicity is recorded as above 50%.
`CC(C)(C)NC(=O)[C@@H]1C[C@@H]2CCCC[C@@H]2CN1C[C@@H](O)[C@H](Cc1ccccc1)NC(=O)[C@H](CC(N)=O)NC(=O)c1ccc2ccccc2n1` [Saquinavir, saquinavir] had an IC50 against SARS-CoV-2 M^pro of 31.4 µM. Also, the “Minimum concentration (Cmin)” value in series [1] is 3800 nM. The Cytotoxicity in the series with HEK-293 T cells (concentrations above 50 µM) is above 50%.
As to `CCC[C@@]1(CCc2ccccc2)CC(O)=C([C@H](CC)c2cccc(NS(=O)(=O)c3ccc(C(F)(F)F)cn3)c2)C(=O)O1` [Tipranavir, tipranavir], the “Inhibition of SARS-CoV-2 M^pro in cell culture” value at SARS-CoV-2 M^pro was “failed to inhibit”. Besides, the IC50 on SARS-CoV-2 M^pro (setting [5]) was above 200 µM.
`NC(=O)c1ncn([C@@H]2O[C@H](CO)[C@@H](O)[C@H]2O)n1` [ribavirin]: the “Concentration effective against SARS-associated coronavirus” value in series [4] is 50 µg/mL.

The record behind these values is paper PMC7689640, “Analysis of the efficacy of HIV protease inhibitors against SARS-CoV-2′s main protease” (Virology Journal, 2020).
